Measured values taken from PubChem BioAssay (NCI).
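Each compound was tested at five concentrations against cells in 96-well plates for 48 hours. GI50 = concentration required for 50% inhibition of growth. TGI marks complete inhibition of growth.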

Legend:
Assay in all cases: DTP human tumour cell line panel, 48 h
[1] = tested on: A498 renal
[2] = tested on: OVCAR-3 ovarian
[3] = tested on: A549 NSCLC
[4] = tested on: SK-MEL-2 melanoma
[5] = tested on: SK-MEL-5 melanoma
[6] = tested on: UO-31 renal
[7] = tested on: RPMI-8226 leukemia
[8] = tested on: OVCAR-4 ovarian
[9] = tested on: SNB-19 CNS
[10] = tested on: BT-549 breast

| SMILES | TGI [1] [µM] | TGI [2] [µM] | TGI [3] [µM] | TGI [4] [µM] | TGI [5] [µM] | TGI [6] [µM] | TGI [7] [µM] | TGI [8] [µM] | TGI [9] [µM] | GI50 [7] [µM] | GI50 [8] [µM] | GI50 [2] [µM] | GI50 [3] [µM] | GI50 [4] [µM] | GI50 [9] [µM] | GI50 [5] [µM] | GI50 [6] [µM] | GI50 [1] [µM] | GI50 [10] [µM] | TGI [10] [µM] |
| --- | --- | --- | --- | --- | --- | --- | --- | --- | --- | --- | --- | --- | --- | --- | --- | --- | --- | --- | --- | --- |
| CN(C)CCNc1nc(-c2cccs2)cc(-c2cccs2)n1 | 25.4 | 48.7 | 32.4 | 32.9 | 29.6 | 23.6 | – | – | – | – | – | – | – | – | – | – | – | – | – | – |
| Nc1ccc(C(=O)N/C(=C\c2cccc([N+](=O)[O-])c2)c2nc3c4c(ccc3[nH]2)C(=O)c2ccccc2C4=O)cc1 | 57.7 | > 100 | > 100 | > 100 | > 100 | 7.64 | > 100 | 43.4 | > 100 | – | – | – | – | – | – | – | – | – | – | – |
| C#CCN(C)C(=O)N(CC#C)N=O | > 100 | > 100 | > 100 | > 100 | > 100 | > 100 | > 100 | > 100 | > 100 | – | – | – | – | – | – | – | – | – | – | – |
| O=C(Nc1cccc(C(F)(F)F)c1)c1cc(Br)cc(Br)c1O | – | 6.14 | 9.56 | 5.07 | 3.58 | 8.51 | 5.86 | > 10 | > 10 | – | – | – | – | – | – | – | – | – | – | – |
| O=S(=O)(O)ONC1=NCCN1 | – | > 100 | > 100 | > 100 | > 100 | > 100 | > 100 | > 100 | > 100 | 46.1 | > 100 | > 100 | > 100 | > 100 | > 100 | > 100 | 29.1 | – | – | – |
| O=C1c2ccn(CCCCN3CCC(O)CC3)c2C(=O)c2c1c(O)c1ccccc1c2O | 55.4 | 4.95 | 68.9 | 8.32 | 96.2 | 11.9 | – | > 64.4 | > 86.9 | – | 17.9 | 2.24 | 26.2 | 2.45 | > 52.2 | 16.6 | 2.4 | 23.7 | 13.2 | 51.6 |
| COc1ccc2c(c1)OCCC1=C2SCC2(C)CCN=C12 (stereo not given) | – | > 100 | > 100 | – | > 100 | – | > 100 | > 100 | > 100 | – | – | – | – | – | – | – | – | – | – | – |
| Cc1cc(O)c(C(c2ccncc2)c2c(O)cc(C)[nH]c2=O)c(=O)[nH]1 | – | > 100 | > 100 | – | > 100 | > 100 | > 100 | > 100 | > 100 | – | – | – | – | – | – | – | – | – | – | > 100 |
| N#Cc1cccc(OCc2ccccc2COc2cccc(C#N)c2)c1 | – | – | > 100 | > 100 | > 100 | > 100 | 59.1 | > 100 | > 100 | 15 | 54.8 | – | 42.5 | > 100 | > 100 | 43.4 | 51.3 | – | 36.7 | 93.3 |
| COc1ccc2nc3cccc(C(=O)NCCN(C)C)c3nc2c1 | 3.34 | 5.89 | > 100 | 3.68 | – | > 100 | 27.6 | 8.72 | 19.6 | – | – | – | – | – | – | – | – | – | – | – |
| COc1ccc(C(=O)O/N=C2/CCC/C2=C\c2ccccc2)cc1 | > 100 | > 100 | > 100 | > 100 | > 100 | > 100 | > 100 | > 100 | > 100 | – | – | – | – | – | – | – | – | – | – | – |
| Nc1c(-c2nc3ccccc3[nH]2)sc(=S)n1-c1ccc(Cl)cc1 | 88.2 | 36.4 | 51.1 | 63.8 | 67.6 | 55.7 | 90.2 | 40.4 | 57.4 | – | – | – | – | – | – | – | – | – | – | – |
| Cn1cc(NC(=O)c2cc(NC(=O)CCCCCCC(=O)Nc3cc(C(=O)Nc4cc(C(=O)NCCC(=N)N)n(C)c4)n(C)c3)cn2C)cc1C(=O)NCCC(=N)N | 5.28 | 50.6 | 54.4 | – | 3.89 | > 100 | – | > 100 | > 100 | – | – | – | – | – | – | – | – | – | – | – |
| NCP(=O)(O)OCC(=O)O | > 100 | > 100 | > 100 | > 100 | > 100 | > 100 | – | > 100 | > 100 | – | – | – | – | – | – | – | – | – | – | – |
| Nc1nc(N)c(-c2ccccc2)c(CCC(=O)Nc2ccc(Cl)cc2)n1 | > 100 | > 100 | > 100 | > 100 | > 100 | > 100 | > 100 | > 100 | > 100 | – | – | – | – | – | – | – | – | – | – | – |
| CCOC(=O)/N=c1/nc(N(C)C)ss1 | > 100 | – | > 100 | > 100 | > 100 | > 100 | > 100 | > 100 | > 100 | – | – | – | – | – | – | – | – | – | – | – |
| Cc1ccc(S(=O)OC23CC4CC(CC(C4)C2)C3)cc1 (stereo not given) | > 100 | > 100 | > 100 | – | > 100 | > 100 | > 100 | > 100 | > 100 | – | – | – | – | – | – | – | – | – | – | – |
| C#CCN(Cc1nc2cc(C(F)(F)F)ccc2nc1-c1ccccc1)c1ccc(F)c(F)c1 | > 100 | 61.8 | 82.1 | – | 46.2 | > 100 | 82.7 | > 100 | > 100 | 22.1 | > 100 | 13.9 | 19.8 | – | 92.5 | 19.1 | 36.1 | 39.9 | 53.1 | > 100 |
| C[n+]1c(N)n(C(=O)OCc2ccccc2)c(=O)c2c1ncn2C(=O)OCc1ccccc1 | > 100 | > 100 | > 100 | > 100 | > 100 | 62.9 | > 100 | > 100 | > 100 | – | – | – | – | – | – | – | – | – | – | – |
| N#C/C(=C\c1ccccc1Br)C(=O)c1ccccc1 | > 100 | > 69.2 | > 70 | > 100 | 34.6 | > 53.9 | 51.6 | 58.8 | > 87.3 | – | – | – | – | – | – | – | – | – | – | – |
| Cn1ccnc1C[N-]Cc1nccn1C.O=[N+]([O-])[O-].O=[N+]([O-])[O-].[Cu+2] | – | > 100 | > 100 | – | > 100 | – | > 100 | > 100 | > 100 | > 100 | 2.49 | > 100 | > 100 | – | > 100 | > 100 | – | – | – | – |
